Results published in patent US11311012B1, “Bacterial control in fermentation systems” (Clean Chemistry, Inc., priority 2017, dated 2022).
Several values for one entry are separate records, joined by “and”; a condition that tells them apart may be missing. Equal values may be shown once. Each block holds one compound with its values, some of them ahead of it.

Experiments:
[1] = tested on: bacteria population in stationary phase; format: cell-based
[2] = tested on: SRB; format: cell-based, bacteria
[3] = tested on: APB; format: cell-based, bacteria
[4] = tested on: yeast cells; format: cell-based, Saccharomyes cerevisiae and Schizosaccharomyces pombe
[5] = ORP of oxidant solutions at pH 7; format: physicochemical; conditions: 29 mM

SMILES: CCCCCCCCCCCC[N+](C)(C)CCCCCCCCCCCC.[Br-] [DDAB, didodecyldimethylammonium bromide]
- ATP [1]: 185 pg/mL and 291 pg/mL
- Effectiveness against bacteria in the stationary phase compared with peracetate oxidant [1]: less effective
- SRB [2]: 5 bottles and 6 bottles
- APB [3]: 3 bottles and 4 bottles

SMILES: [O][Cl+][O-] [Chlorine Dioxide, chlorine dioxide]
- Yeast activity vs untreated mash [4]: greater yeast activity

- ORP [5]: over 1.1 V (vs SHE)
SMILES: OCl [hypochlorous acid]

- ORP [5]: about 0.5 V (vs SHE)
SMILES: OO [hydrogen peroxide]
